In one series the test system is MEK. The experiment in a line: Cellular assay for measuring MEK inhibition, C26ELSA (pERK ELISA format in C26 cells). In kind it is cell-based, murine. To be noted: for IC50: murine colon 26 (C26) carcinoma cells, one hour at 37 C. The procedure:
Cellular Assay for Measuring MEK Inhibition
MEK inhibitors were evaluated by determining their ability to inhibit phosphorylation of MAP kinase (ERK) in murine colon 26 (C26) carcinoma cells. Since ERK1 and ERK2 represent the only known substrates for MEK1 and MEK2, the measurement of inhibition of ERK phosphorylation in cells provides direct read out of cellular MEK inhibition by the compounds of the invention. Detection of phosphorylation of ERK was carried out either by Western blot or ELISA format. Briefly, the assays involve treatment of exponentially growing C26 cells with varying concentrations of the test compound (or vehicle control) for one hour at 37≡ C. For Western blot assay, cells were rinsed free of compound/vehicle and lysed in a solution containing 70 mM NaCl, 50 mM glycerol phosphate, 10 mM HEPES, […], 1% Triton X-100, 1 mM Na3VO4, 100 μM PMSF, 10 μM leupeptin and 10 μM pepstatin. Supernatants were then subjected to gel electrophoresis and hybridized to a primary antibody recognizing dually phosphorylated ERK1 and ERK2. To evaluate total MAPK levels, blots were subsequently ‘stripped’ and re-probed with a 1:1 mixture of polyclonal antibodies recognizing unphosphorylated ERK1 and ERK2. For pERK ELISA assay, pERK TiterZyme Enzyme immunometric Assay kits were acquired from Assay Designs, Inc (Ann Arbor, Mich.). Briefly, cells were harvested in lysis solution containing 50 mM β-glycerophosphate, 10 mM HEPES, pH7.4, 70 mM NaCl, 2 mM EDTA and 1% SDS and protein lysates were diluted 1:15 with supplied Assay buffer prior to the execution of the assay. The subsequent steps were carried out essentially as recommended by the manufacturer.
On the technique in general: In an ELISA, binding on a coated surface is turned into a signal by an enzyme label.

The structures appear in SMILES notation.

Turning to `C#Cc1ccc(Nc2c(-c3nnc(NCCO)o3)ccc(F)c2F)c(F)c1` [Example 140, 2-{5-[2-(4-Ethynyl-2-fluoro-phenylamino)-3,4-difluoro-phenyl]-[1,3,4]oxadiazol-2-ylamino}-ethanol], the melting point (in general, the temperature of the solid-liquid transition) lay in the range of 115.9 to 116.5 °C. Also, it took 3 nM to reach half-maximal inhibition with MEK (IC50).

`CCc1nnc(-c2ccc(F)c(F)c2Nc2ccc(I)cc2F)o1` [Example 143, [6-(5-Ethyl-[1,3,4]oxadiazol-2-yl)-2,3-difluoro-phenyl]-(2-fluoro-4-iodo-phenyl)-amine]: the melting point lay in the range of 97 to 98 °C. Also, in the series with MEK (5 μM, C26 cells), the “C26ELSA % Inhibition @ 5 μM” value is listed as 88%.

Consider `OCCCc1ccc(Nc2c(-c3nnc(NCCN4CCOCC4)o3)ccc(F)c2F)c(F)c1` [Example 147, 3-(4-{2,3-Difluoro-6-[5-(2-morpholin-4-yl-ethylamino)-[1,3,4]oxadiazol-2-yl]-phenylamino}-3-fluoro-phenyl)-propan-1-ol], for which the melting point was 102 to 106 °C. In the series with MEK, 34000 nM corresponded to half-maximal inhibition (IC50).

Consider `C#Cc1ccc(Nc2c(-c3nnc(NCCN4CCOCC4)o3)ccc(F)c2F)c(F)c1` [Example 148, {5-[2-(4-Ethynyl-2-fluoro-phenylamino)-3,4-difluoro-phenyl]-[1,3,4]oxadiazol-2-yl}-(2-morpholin-4-yl-ethyl)-amine], for which the melting point fell in the range of 146 to 148 °C. Also, the 50% inhibitory concentration (IC50) (in general, the concentration needed to halve the response being measured) in the series with MEK turned out to be 63 nM.

Take `OC[C@H](O)CNc1nnc(-c2ccc(F)c(F)c2Nc2ccc(I)cc2F)o1` [Example 150, 3-{5-[3,4-Difluoro-2-(2-fluoro-4-iodo-phenylamino)-phenyl]-[1,3,4]oxadiazol-2-ylamino}-propane-1,2 (R)-diol]: the melting point fell in the range of 174 to 176 °C. Also, it took 92 nM to reach half-maximal inhibition in the series on MEK (IC50).

As for `CCc1ccc(Nc2c(-c3nnc(NC[C@@H](O)CO)o3)ccc(F)c2F)c(F)c1` [Example 152, 3-{5-[2-(4-Ethyl-2-fluoro-phenylamino)-3,4-difluoro-phenyl]-[1,3,4]oxadiazol-2-ylamino}-propane-1,2(R)-diol], the melting point was 150 to 152 °C (dec.). The same compound registered an IC50 in the series on MEK of 2400 nM.

Turning to `OCC(CO)Nc1nnc(-c2ccc(F)c(F)c2Nc2ccc(I)cc2F)o1` [Example 154, 2-{5-[3,4-Difluoro-2-(2-fluoro-4-iodo-phenylamino)-phenyl]-[1,3,4]oxadiazol-2-ylamino}-propane-1,3-diol], the melting point is 110 to 114 °C (dec.). This compound displayed a 50% inhibitory concentration (IC50) with MEK of 110 nM.

In the case of `C=Cc1ccc(Nc2c(-c3nnc(NCCN4CCOCC4)o3)ccc(F)c2F)c(F)c1` [Example 156, {5-[3,4-Difluoro-2-(2-fluoro-4-vinyl-phenylamino)-phenyl]-[1,3,4]oxadiazol-2-yl}-(2-morpholin-4-yl-ethyl)-amine], the melting point lay within 174 to 177 °C. This compound had an IC50 in the series with MEK of 710 nM.

Values taken from patent publication US20050004186A1, “MEK inhibiting compounds” (Pfizer Inc, priority 2002, published 2005).
